Assay: Human HepG2 cell viability assay in 384 well format
Format: toxicity, cell-based
Set-up: dose 125 nL, time 70.5 hour; cytotoxicity at 70.5 h: concentration not given beside the values
Settings: HepG2 cells, read-out: Inhibition

Row | Compound | cytotoxicity at 70.5 h
1 | COCc1nc(C(=O)N2CCCC2c2cc(C)no2)cs1 (stereo not given) | -7.8%
2 | CCc1cccc(N2CCC(NC(=O)C3CCOCC3)CC2)c1 | -5.26%
3 | CCc1cccc(N2CCC(NC(=O)c3ccoc3C)CC2)c1 | 19.4%
4 | CCc1cccc(N2CCC(NC(=O)C3CCC3)CC2)c1 | -6.88%
5 | O=C(CCc1cccs1)N1CCCC(n2ccnc2)C1 (stereo not given) | -5.36%
6 | Cc1cc(C)n(C2CN(CC(=O)NC3CCS(=O)(=O)C3)C2)n1 (stereo not given) | -9.43%
7 | COc1ccc(OCCCNCCn2cccn2)cc1 | 22.8%
8 | O=C(CCCNc1ncccn1)N1CCCC(n2ccnc2)C1 (stereo not given) | -3.12%
9 | COc1cc(C(=O)N2CCC(c3n[nH]c(C)n3)CC2)cc(OC)c1C | -3.07%
10 | CC1CCN(S(=O)(=O)NCc2ccccc2Cn2cccn2)CC1 | 14.5%
11 | COc1ccc(OC)c(C(O)CNC(=O)Nc2ccc(F)cc2F)c1 (stereo not given) | -6.18%
12 | Cc1nc(CN2CCN(C(=O)CCc3ccco3)CC2)cs1 | -5.22%
13 | Cc1cnn(C2CCCN(C(=O)c3ccc(-n4ccnc4)cc3)C2)c1 (stereo not given) | -17.4%
14 | c1ncn(CC2CCCN(Cc3noc(C4CC4)n3)C2)n1 (stereo not given) | -12.6%
15 | Cc1cc(C)n(CC2CCCN2C(=O)c2ccc(N(C)C)nn2)n1 (stereo not given) | -10.8%
16 | Cc1cc(C)n(CC2CCCCN2C(=O)c2ccc(C(N)=O)cc2)n1 (stereo not given) | -12%
17 | Cc1cc(C)n(CC2CCCN2CCC(=O)Nc2cc(C)on2)n1 (stereo not given) | -7.1%
18 | O=C(c1cscn1)N1CCCC(n2cncn2)C1 (stereo not given) | -8.94%
19 | O=C(c1csnn1)N1CCCC(n2cncn2)C1 (stereo not given) | 15.3%
20 | CN(C)c1ccc(C(=O)N2CCCC(n3cncn3)C2)nn1 (stereo not given) | -5.16%
21 | Cc1cscc1C(=O)N1CCCC1CC(=O)c1cnn(C)c1 (stereo not given) | -5.58%
22 | Cc1nc(CN2CCCC(Cn3cncn3)C2)no1 (stereo not given) | 15.8%

Row | Compound | cytotoxicity at 70.5 h
23 | CCCc1nc(CN2CCCC2Cn2cncn2)no1 (stereo not given) | -6.08%
24 | COC(=O)C(c1cc(F)ccc1F)N(C)C(=O)c1ccccn1 (stereo not given) | -9.53%
25 | COCCCNC(=O)N1CCC(CNC(=O)c2cnn(C)c2)CC1 | -8.18%
26 | CC(C)n1ccc(C(=O)N2CCCC(n3cncn3)C2)n1 (stereo not given) | -10.6%
27 | COc1ccc(OC)c(CNC(=O)N2CCC(n3cncn3)CC2)c1 | 35%
28 | Fc1ccc(OCCCN2CCCC(Cn3cncn3)C2)cc1 (stereo not given) | -3.77%
29 | O=C(NCCNc1cnccn1)N1CCCCCC1 | 2.18%
30 | Cc1cnn(CC(=O)N2CCCN(c3ncccc3C#N)CC2)c1 | -1.08%
31 | Cc1cc(C)c(CNC(=O)N2CCOC(c3ccccc3)C2)c(=O)[nH]1 (stereo not given) | -8.25%
32 | Cn1cc(CCC(=O)N2CCCN(c3ncccc3C#N)CC2)cn1 | 35.5%
33 | O=C(NCCNc1cnccn1)N1CCN(c2nccs2)CC1 | -8.94%
34 | Cc1ccccc1CNC(=O)N1CCC(n2cncn2)CC1 | -5.36%
35 | CC(C)Sc1ncccc1C(=O)NCc1ccc(O)cc1 | -2.85%
36 | O=C(Cn1cc(-c2ccccc2)cn1)NC(C1CC1)C1CC1 | -5.32%
37 | N#Cc1ccc(OCCCN2CCOC(Cn3cncn3)C2)cc1 (stereo not given) | 32.1%
38 | COc1cc(Cl)ccc1CNC(=O)N1CCC(n2cncn2)CC1 | 0.114%
39 | CCCc1n[nH]c(C2CN(C(=O)CCn3ccccc3=O)CCO2)n1 (stereo not given) | -2.27%
40 | CC(C)c1n[nH]c(C2CN(C(=O)Cn3ccccc3=O)CCO2)n1 (stereo not given) | -2.65%
41 | CCNC(c1cccnc1)c1ccc(F)cc1F (stereo not given) | 2.45%
42 | COc1ccnc(C(=O)N2CCCC(c3noc(C)n3)C2)c1 (stereo not given) | -12.8%
43 | Fc1cccc(-c2nc(CN3CCOC(Cn4cncn4)C3)co2)c1 (stereo not given) | -15.8%
44 | COc1ccc(CCN2CCc3c(nc(C4CC4)n3C)C2)cc1 | -2.39%

Row | Compound | cytotoxicity at 70.5 h
45 | Cc1n[nH]c(C)c1NC(=O)CN1CCc2c(nc(C3CC3)n2C)C1 | 17.7%
46 | CC(C)OCCN1CCN(C(=O)c2cccc(CC#N)c2)CC1 | -12%
47 | CCN(Cc1ccc2c(c1)OCO2)C(=O)NC(C)Cn1cccn1 (stereo not given) | -12.9%
48 | COCC(O)CN(C)C(=O)NC1CCN(Cc2ccccn2)CC1 (stereo not given) | -17.1%
49 | CC(Cn1ccnc1)NC(=O)NCCc1ccc2c(c1)OCCO2 (stereo not given) | 13.3%
50 | CCN(Cc1ccc2c(c1)OCCO2)C(=O)NC(C)Cn1ccnc1 (stereo not given) | -12.9%
51 | COCc1ccccc1CNc1cc(N2CCCC2CO)ncn1 (stereo not given) | -18.2%
52 | O=C1CCc2cc(-c3csc(CCN4CCCC4=O)n3)ccc2N1 | -14.6%
53 | CC(C)c1cc(NC(=O)CN2CCc3ccccc3C2)on1 | -6.95%
54 | CC(NC(=O)c1cccs1)C(=O)NCc1ccccc1CN1CCCC1 (stereo not given) | -2%
55 | COc1ncccc1NC(=O)NCC1CCS(=O)(=O)C1 (stereo not given) | -18.6%
56 | CCn1cnnc1CNC(=O)NC(C)c1cccs1 (stereo not given) | -14.5%
57 | CN(Cc1cnn(C)c1)C(=O)NC1CCN(Cc2ccccn2)CC1 | -11.3%
58 | Cc1ncsc1C(=O)NC1CCN(CCC(N)=O)CC1 | -21.4%
59 | c1ccc(-n2ccnc2)c(CNCC2CNc3ccnn3C2)c1 (stereo not given) | -20.8%
60 | O=C(Cc1ccc2c(c1)OCCO2)NC1CCN(CC(F)F)CC1 | -19.5%
61 | CCn1cnnc1CNC(=O)NCC(c1cccs1)N1CCCC1 (stereo not given) | -14%
62 | Cc1cccc(C)c1OCCC(=O)N1CCC(c2nncn2C)CC1 | -21.4%
63 | Cc1ccc(C(=O)CCC(=O)N2CCC(c3nncn3C)CC2)cc1 | -4.47%
64 | Cn1ccnc1CN1CCN(CC(O)c2ccc(F)c(F)c2)CC1 (stereo not given) | 13.5%
65 | CC(C)c1cc(NC(=O)CN2CCc3cncnc3C2)on1 | -11.7%
66 | CC(=O)Nc1nc(C(=O)N2CCCC2c2noc(C)n2)cs1 (stereo not given) | 6.71%

Row | Compound | cytotoxicity at 70.5 h
67 | CCn1ccnc1CN(C)CC1CCCN1c1cccnn1 (stereo not given) | 10%
68 | CC(=O)N(Cc1ncc(C)o1)C1CCN(CCCc2cnn(C)c2)C1 (stereo not given) | 13.3%
69 | Cc1ccc(CN(C)CC(=O)NC2(C)CCS(=O)(=O)C2)cc1 (stereo not given) | -3.98%
70 | COc1ccc(CC(=O)NC2(C)CCS(=O)(=O)C2)cc1F (stereo not given) | 0.396%
71 | CCn1ccnc1CNCC1CCCN1c1cc(NC)ncn1 (stereo not given) | -4.32%
72 | Cc1cc(C2CCCN(C(=O)c3c(C)nn4cccnc34)C2)n[nH]1 (stereo not given) | -3.82%
73 | Cc1ccoc1-c1nnc(CN2CCn3c(nnc3C3CC3)C2)o1 | 31.2%
74 | Cc1noc(C)c1CN(C)CCC(=O)N1CCc2sccc2C1 | -4.03%
75 | Cc1occc1CNC(=O)N(CCCO)C1CCc2ccccc21 (stereo not given) | -1.74%
76 | CCc1ncc2c(n1)CN(CC(=O)Nc1ccc(Cl)cn1)CC2 | 32.4%
77 | COCCN1CCN(Cc2cccc(C(=O)N(C)C)c2)CC1C (stereo not given) | 14.5%
78 | CCCNC(=O)NCc1cccnc1OC | -5.64%
79 | CN(Cc1ccc2c(c1)OCCO2)C(=O)Cn1cccnc1=O | 3.46%
80 | CCN1CCN(c2ccc(CNC(=O)c3c(C)noc3C)cn2)CC1 | 21.7%
81 | CN(Cc1ccc2c(c1)OCCO2)C(=O)Cn1ccccc1=O | -5.02%
82 | CCNC(=O)c1ccc(CNCc2c(C)nn(C)c2N(C)C)cc1 | 24.8%
83 | CC(C)CN1CCN(C(=O)NCc2cccnc2-n2cccn2)CC1 | 3.85%
84 | CC(=O)NC1CCCN(C(=O)NCc2cccnc2-n2cccn2)C1 (stereo not given) | 3.84%
85 | Cc1nn(C)c(Cl)c1CNCc1ccc(OCC(N)=O)cc1 | 1.75%
